{
  "source": "patent US7728015B2",
  "about": "“Compositions for weight management” (Mor Research Applications Ltd., priority 2004, dated 2010)",
  "key": {"[1]": {"experiment": "Randomized placebo controlled double-blinded study of oral betahistine on food intake, caloric intake and weight in obese persons", "assay_type": "in vivo, human", "procedure": "Weight, caloric intake (24 hour recall) and appetite during the day (VAS, Visual Analogue Score) were obtained on day 0, 14 and 28 of the study. Subjects were instructed to eat according to their appetite without limitations. Statistical significance was assessed with t-test. BMI stands for body mass index."}, "[2]": {"experiment": "Blood metabolite levels of a healthy overweight person before and after one month of betahistine", "assay_type": "in vivo, human", "design": "Total cholesterol / HDL-cholesterol / LDL-cholesterol / Triglycerides: unit not given here"}, "[3]": {"conditions": "in vivo, cited from earlier work"}, "H3-receptor": {"biological_target": "H3-receptor (Homo sapiens, UniProt Q9Y5N1)", "sequence (Q9Y5N1 whole entry)": "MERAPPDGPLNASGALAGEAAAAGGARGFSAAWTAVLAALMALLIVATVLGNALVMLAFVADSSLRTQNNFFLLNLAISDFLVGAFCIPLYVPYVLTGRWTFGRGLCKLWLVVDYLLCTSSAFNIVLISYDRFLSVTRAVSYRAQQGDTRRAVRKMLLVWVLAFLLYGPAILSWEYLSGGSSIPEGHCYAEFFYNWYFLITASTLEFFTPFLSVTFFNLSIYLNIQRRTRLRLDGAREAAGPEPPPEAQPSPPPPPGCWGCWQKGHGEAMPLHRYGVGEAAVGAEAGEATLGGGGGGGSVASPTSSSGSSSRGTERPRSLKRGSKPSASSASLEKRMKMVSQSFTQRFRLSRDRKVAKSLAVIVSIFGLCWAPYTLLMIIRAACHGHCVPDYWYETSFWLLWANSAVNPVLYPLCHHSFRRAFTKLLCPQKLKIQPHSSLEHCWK", "conditions": "receptor binding studies; cited from earlier work"}, "[4]": {"conditions": "cited from earlier work"}, "[5]": {"conditions": "rats, cited from earlier work"}, "[6]": {"conditions": "pygmy goats, high doses intraperitoneally; cited from earlier work"}, "[7]": {"conditions": "rats, cited from earlier work", "remark": "listed apart in the source"}, "[8]": {"conditions": "betahistine 16 mg orally twice a day, FIG. 5"}, "[9]": {"conditions": "Day 30, betahistine 16 mg twice daily, blood test"}},
  "note": "Where two headings read alike, the source gives them in different places.",
  "data": [
    {"smiles": "CNCCc1ccccn1", "note": "[betahistine, 2-[2-(methylamino)ethyl]pyridine]", "values": [
      {"measurement": "adverse event reported by a subject", "setting": "[1]; Subject No. 5, day 5, betahistine 16 mg twice a day", "value": "food aversion that did not allow them to consume any food"},
      {"measurement": "reduction in carbohydrate consumption", "setting": "[1]; [8]", "value": 6, "unit": "%"},
      {"measurement": "reduction in fat consumption", "setting": "[1]; [8]", "value": 49, "unit": "%"},
      {"measurement": "reduction in protein consumption", "setting": "[1]; [8]", "value": 35, "unit": "%"},
      {"measurement": "total caloric intake", "setting": "[1]; betahistine 16 mg orally twice a day, day 14 of treatment", "value": "80 percents of the pre-treatment level"},
      {"measurement": "total caloric intake", "setting": "[1]; betahistine 16 mg orally twice a day, day 28 of treatment", "value": "68 percents of the pre-treatment level"},
      {"measurement": "subjects who lost more than 1 kg during the study period", "setting": "[1]; treatment group, 28 day study, no food restriction", "value": "Four out of seven"},
      {"measurement": "Fructoseamine", "setting": "[2]; [9]", "value": 202},
      {"measurement": "HDL-cholesterol", "setting": "[2]; [9]", "value": 58},
      {"measurement": "LDL-cholesterol", "setting": "[2]; [9]", "value": 84},
      {"measurement": "Total cholesterol", "setting": "[2]; [9]", "value": 155},
      {"measurement": "Triglycerides", "setting": "[2]; [9]", "value": 62},
      {"measurement": "Fructoseamine Change", "setting": "[2]; Day 30 vs Day 0", "value": "+4%"},
      {"measurement": "HDL-cholesterol Change", "setting": "[2]; Day 30 vs Day 0", "value": "+7%"},
      {"measurement": "LDL-cholesterol Change", "setting": "[2]; Day 30 vs Day 0", "value": "−15", "unit": "%"},
      {"measurement": "Total cholesterol Change", "setting": "[2]; Day 30 vs Day 0", "value": "−7", "unit": "%"},
      {"measurement": "Triglycerides Change", "setting": "[2]; Day 30 vs Day 0", "value": "−10", "unit": "%"},
      {"measurement": "half-life", "setting": "[3]", "value": "about 3.5 hours"},
      {"measurement": "half-life", "setting": "[3]; listed as Betahistine", "value": 3.5, "unit": "h"},
      {"measurement": "H3-receptor activity", "setting": "H3-receptor", "value": "potent H3-receptor antagonist"},
      {"measurement": "weight gain from week 2 to the end of the study", "setting": "[4]; betahistine and olanzapine for 6 weeks, three patients", "value": "no weight gain was observed"},
      {"measurement": "mean weight gain compared with olanzapine/placebo-treated patients", "setting": "[4]; betahistine/olanzapine-treated patients, 6 weeks", "value": "lower"},
      {"measurement": "food intake", "setting": "[5]; given intragastrically", "value": "this effect was not seen"},
      {"measurement": "food intake", "setting": "[5]; given intraperitoneally", "value": "decreased food intake"},
      {"measurement": "food intake", "setting": "[6]", "value": "decreased food intake"},
      {"measurement": "water intake", "setting": "[6]", "value": "increased water intake"}
    ]},
    {"smiles": "Cc1nc(N)nc(N)c1-c1ccc(Cl)c(Cl)c1", "note": "[metoprine]", "values": [
      {"measurement": "half-life", "setting": "[3]", "value": 216, "unit": "h"},
      {"measurement": "intakes of carbohydrates or protein", "setting": "[7]; FIG. 2", "value": "no marked effect"},
      {"measurement": "daily energy intake and ingestion of fat", "setting": "[7]; intraperitoneal injection", "value": "suppressed daily energy intake and ingestion of fat"}
    ]}
  ]
}
